Experiments:
4T1 = test: Antitumor activity against mouse 4T1 cells xenografted in BALB/c mouse model assessed as reduction in tumor growth at 100 microg/ml measured after 20 days relative to control; assay type: functional; parameters: scale not given: the % may be the effect or the level left; conditions: dose 100 µg/ml; time 20 day
T47D = test: Antiproliferative activity against human T47D cells assessed as reduction in cell growth incubated for 48 hrs by MTT assay; assay type: functional, cell-based
ZR-75-1 = test: Antiproliferative activity against human ZR-75-1 cells assessed as reduction in cell growth measured after 5 days by Celltiter-Glo assay; assay type: functional, cell-based; conditions: ZR-75-1, 120 h
[1] = Antiproliferative activity against human LNCaP/AR cells assessed as reduction in cell growth measured after 3 days by CellTiter-Glo assay; assay type: functional, cell-based; conditions: 72 h
Tubulin = test: Inhibition of microtubule (unknown origin) polymerization; assay type: protein-complex assay, Homo sapiens
DU-145 = test: Antimitotic activity against human DU-145 cells assessed as reduction in cell proliferation incubated for 72 hrs by alamar blue based fluorescence spectrophotometric analysis; assay type: functional; conditions: DU-145, 72 h

**Q.** Which Activity (4T1) does the source give for `CO[C@H]1C(=O)[C@]2(C)[C@@H](OC)C[C@H]3OC[C@@]3(OC(C)=O)[C@H]2[C@H](OC(=O)c2ccccc2)[C@]2(O)C[C@H](OC(=O)[C@H](O)[C@@H](NC(=O)OC(C)(C)C)c3ccccc3)C(C)=C1C2(C)C` [CABAZITAXEL] here?
**A.** 56.2%

**Q.** For `CC1(C)NC(=O)N(c2ccc([N+](=O)[O-])c(C(F)(F)F)c2)C1=O` [NILUTAMIDE], which IC50 (T47D) is on record?
**A.** 87 nM

**Q.** What about the IC50 (ZR-75-1) of the same compound?
**A.** 75 nM

**Q.** Which IC50 [1] does the source give for `CC(O)(CS(=O)(=O)c1ccc(F)cc1)C(=O)Nc1ccc(C#N)c(C(F)(F)F)c1` (stereo unspecified) [BICALUTAMIDE] here?
**A.** 160 nM

**Q.** For `CC(=O)O[C@@]12CO[C@@H]1C[C@H](O)[C@@]1(C)C(=O)[C@H](O)C3=C(C)[C@@H](OC(=O)[C@H](O)[C@@H](NC(=O)OC(C)(C)C)c4ccccc4)C[C@@](O)([C@@H](OC(=O)c4ccccc4)[C@H]21)C3(C)C` [DOCETAXEL ANHYDROUS], which IC50 (Tubulin) is on record?
**A.** 200 nM

**Q.** Which IC50 (DU-145) does the source give for `C[C@]12CC[C@@H]3c4ccc(OC(=O)N(CCCl)CCCl)cc4CC[C@H]3[C@@H]1CC[C@@H]2OP(=O)(O)O` [ESTRAMUSTINE PHOSPHATE SODIUM] here?
**A.** 16000 nM

Source: ChEMBL document CHEMBL5500321, “Synthesis and clinical application of small-molecule drugs approved to treat prostatic cancer” (Eur J Med Chem, 2023)
